# Data published in patent EP0337503B1, “Fumigation methods and compositions” (Entek Corporation, priority 1983, dated 1984).
# Legend:
# [1] = Decomposition in sandy loam soil at different moisture, CS2 in air space by gas chromatography; assay type: physicochemical; conditions: hours to maximum CS2 concentration in the air space
# Method: A sandy loam soil is placed in 1-liter glass bottles, fitted with stoppers having fluorocarbon liners and silicone rubber septa, to give a soil depth of about 4 cm. […] Thiocarbonate solution or carbon disulfide is injected near the bottom of the soil layer, the bottles are promptly sealed, and the air space in the bottles is sampled at intervals with a syringe, for gas chromatographic analysis of CS2. Results are summarized below, wherein degradation time is the number of hours required to achieve the maximum CS2 concentration in the air space.
# [2] = tested on: root-knot nematode larvae (Meloidogyne incognita); experiment: Greenhouse nematocide experiment with tomato plants, soil drench, root gall count; assay type: in vivo; conditions: 30 days; for Gall Counts, replicate 3: control 1; for Gall Counts, Mean: control 4.0; for Gall Counts, replicate 2: control 7; for Gall Counts, replicate 1: control 4
# Method: In the experiment, thirty containers are used, each containing about 500 grams of sterilized sandy loam soil. Each container contains one tomato plant. Each container is injected with four 5-milliliter portions of extract from nematode-infested pepper roots, one inch below the soil surface, producing an initial population of 2000 root-knot nematode larvae (Meloidogyne incognita) per container.
# Ten treatments are replicated three times, each treatment consisting of drenching the soil with a solution containing the fumigant to provide the dosage of CS2 given in the following table. The solutions are diluted with sufficient water to saturate the soil. The treatments include calcium tetrathiocarbonate, stabilized ammonium tetrathiocarbonate, and carbon disulfide at three levels, plus an untreated control. After drenching, each container is allowed to stand at ambient conditions. The plants are harvested after 30 days of growth, and soil is removed from the roots by a gentle washing with water. By use of a magnifying glass, the number of root galls is counted on each plant.
# Results are summarized below, wherein the "Application" represents milligrams of treatment per kilogram of soil, calculated as the thiocarbonate salt and the equivalent carbon disulfide. Gall counts are mean values from the three replicates.
# Phytophthora cinnamomi = experiment: Fungicidal test, radial growth of mycelia colonies; assay type: cell-based
# Method: (§1) Thiocarbonate solutions are used in a test of their fungicidal properties. Cultures of four plant pathogenic fungi are grown upon potato dextrose agar at room temperature, in diffuse natural lighting. After one week, square blocks having 2 millimeter sides are cut from the edges of actively growing mycelia spots on the agar.
# (§2) The blocks are immersed in sterile deionized water, as a control, or in dilutions of thiocarbonate solutions using the sterile water, in a closed container. Subsequently, the blocks are removed and placed upon agar in clean plates, and mycelia are allowed to grow for one week.
# (§3) Radial growth of mycelia colonies is measured for each of the six to eight replicate plates used for a particular fungus, and average colony radius is calculated. Percent control is defined by the following equation: Percent control =[1-((Average radius of treated plates)/(Average radius of control plates))]x100 [formula]
# (§4) Concentrations given for solutions used to treat the agar blocks are expressed in grams of thiocarbonate solution per liter of diluted solution.
# Verticillium dahliae = experiment: Fungicidal test, radial growth of mycelia colonies; assay type: cell-based
# Method: as §1, §2, §3, §4
# Sclerotium rolfsii = experiment: Fungicidal test, radial growth of mycelia colonies; assay type: cell-based
# Method: as §1, §2, §3, §4
# Fusarium oxysporum = experiment: Fungicidal test, radial growth of mycelia colonies; assay type: cell-based
# Method: as §1, §2, §3, §4
# [3] = Effect of pH on production of CS2 from thiocarbonates in citrate-phosphate buffers, gas chromatography of air; assay type: physicochemical
# Method: Pure carbon disulfide is also injected, for comparison. A syringe is used to periodically sample air in the bottle, and the air is analyzed by gas chromatography.
# nematode larvae = experiment: In-vitro nematocidal test: larvae treated in aqueous suspension, injected into root zone of tomato plants, gall count; assay type: in vivo, Meloidogyne incognita; conditions: larvae treated 1 hour; for Gall Count, replicate 2: control 88; for Gall Count, Mean: control 89; for Gall Count, replicate 1: control 90
# Method: The procedure of Example 2 is repeated except that potassium tetrathiocarbonate is substituted for stabilized ammonium tetrathiocarbonate and an in-vitro nematocidal test is used. In the in-vitro test, the nematode larvae are treated in aqueous suspension for 1 hour at the concentrations of fumigant given in the following table, washed twice with water, and injected into the active root zone of the tomato plants. After thirty days the roots are harvested, examined for galling, giving the results summarized below.
# [4] = Storage stability: loss of ability of aqueous solutions to generate carbon disulfide upon contact with strong acid; assay type: physicochemical; conditions: aqueous solutions of tetrathiocarbonate salts, about 14 to about 16 percent by weight carbon disulfide equivalent, air-tight glass containers, 49° C.
# Method: Various tetrathiocarbonate salts are evaluated for storage stability by measuring the loss of the ability of aqueous solutions thereof to generate carbon disulfide upon contact with strong acid. Aqueous solutions of the salts listed in the following table, having an equivalent of from about 14 to about 16 percent by weight carbon disulfide, are stored in air-tight glass containers at a temperature of 49° C.
# [5] = Soil Moisture 0 % of Saturation
# [6] = Soil Moisture 50 % of Saturation
# [7] = Soil Moisture 100 % of Saturation
# [8] = highest application: 638/89 ppm ((NH4)2CS4·(NH4)2S), 730/91 (CaCS4), 97 ppm (CS2)
# [9] = lowest application: 213/30 ppm ((NH4)2CS4·(NH4)2S), 245/31 (CaCS4), 32 ppm (CS2)
# [10] = middle application: 425/60 ppm ((NH4)2CS4·(NH4)2S), 490/61 (CaCS4), 65 ppm (CS2)
# [11] = 100 g/l thiocarbonate solution per liter of diluted solution
# [12] = 50 ppm salt (6.3 ppm CS2 equiv. CaCS4; 6.5 ppm K2CS4)
# [13] = 100 ppm salt (12.5 ppm CS2 equiv. CaCS4; 13 ppm K2CS4)
# [14] = 150 ppm salt (18.8 ppm CS2 equiv. CaCS4; 19.5 ppm K2CS4)
# [15] = 1 g/l, listed as K2CS4 (9.43%CS2)
# [16] = 10 g/l, listed as K2CS4 (9.43%CS2)
compound,measurement,setting,value
stabilized ammonium tetrathiocarbonate [(NH4)2CS4·(NH4)2S],Degradation Time,[1]; [5],2 h
same,Degradation Time,[1]; [6],3 h
same,Degradation Time,[1]; [7],48 h
same,"Gall Counts, replicate 3",[2]; [8],2
same,"Gall Counts, Mean",[2]; [8],4.3
same,"Gall Counts, replicate 2",[2]; [8],5
same,"Gall Counts, replicate 1","[2]; highest application: 638 ppm salt/89 ppm Eq. CS2 ((NH4)2CS4·(NH4)2S), 730/91 (CaCS4), 97 ppm (CS2)",6
same,"Gall Counts, replicate 3",[2]; [9],3
same,"Gall Counts, Mean",[2]; [9],5.0
same,"Gall Counts, replicate 2",[2]; [9],7
same,"Gall Counts, replicate 1","[2]; lowest application: 213 ppm salt/30 ppm Eq. CS2 ((NH4)2CS4·(NH4)2S), 245/31 (CaCS4), 32 ppm (CS2)",5
same,"Gall Counts, replicate 3",[2]; [10],6
same,"Gall Counts, Mean",[2]; [10],10.0
same,"Gall Counts, replicate 2",[2]; [10],15
same,"Gall Counts, replicate 1","[2]; middle application: 425 ppm salt/60 ppm Eq. CS2 ((NH4)2CS4·(NH4)2S), 490/61 (CaCS4), 65 ppm (CS2)",9
same,Percent Control Phytophthora cinnamomi,Phytophthora cinnamomi; 1 g/l,97%
same,Percent Control Phytophthora cinnamomi,Phytophthora cinnamomi; 10 g/l,74%
same,Percent Control Phytophthora cinnamomi,Phytophthora cinnamomi; 100 g/l,100%
same,Percent Control Verticillium dahliae,Verticillium dahliae; 1 g/l,41%
same,Percent Control Verticillium dahliae,Verticillium dahliae; 10 g/l,81%
same,Percent Control Verticillium dahliae,Verticillium dahliae; 100 g/l,91%
same,Percent Control Sclerotium rolfsii,Sclerotium rolfsii; 1 g/l,49%
same,Percent Control Sclerotium rolfsii,Sclerotium rolfsii; 10 g/l,93%
same,Percent Control Sclerotium rolfsii,Sclerotium rolfsii; 100 g/l,100%
same,Percent Control Fusarium oxysporum,Fusarium oxysporum; 1 g/l,70%
same,Percent Control Fusarium oxysporum,Fusarium oxysporum; 10 g/l,100%
same,Percent Control Fusarium oxysporum,Fusarium oxysporum; [11],100%
same,Half-life (minutes) for production of carbon disulfide,"[3]; pH 5.2, 125 milligrams per liter of thiocarbonate ion",1 min
same,Half-life (minutes) for production of carbon disulfide,"[3]; pH 6.0, 125 milligrams per liter of thiocarbonate ion",1 min
same,Half-life (minutes) for production of carbon disulfide,"[3]; pH 7.0, 125 milligrams per liter of thiocarbonate ion",2.1 min
same,Half-life (minutes) for production of carbon disulfide,"[3]; pH 8.0, 125 milligrams per liter of thiocarbonate ion, CaCS4 values above pH 7 called unreliable",9.2 min
same,Half-life (minutes) for production of carbon disulfide,"[3]; pH 9.0, 125 milligrams per liter of thiocarbonate ion, CaCS4 values above pH 7 called unreliable",26.1 min
"S=C(S)SS [Formula K2CS4, potassium tetrathiocarbonate]",Degradation Time,[1]; [5],2 h
same,Degradation Time,[1]; [6],5 h
same,Degradation Time,[1]; [7],48 h
same,"Gall Count, replicate 2",nematode larvae; [12],66
same,"Gall Count, Mean",nematode larvae; [12],49.5
same,"Gall Count, replicate 1",nematode larvae; [12],33
same,"Gall Count, replicate 2",nematode larvae; [13],145
same,"Gall Count, Mean",nematode larvae; [13],171.5
same,"Gall Count, replicate 1",nematode larvae; [13],198
same,"Gall Count, replicate 2",nematode larvae; [14],22
same,"Gall Count, Mean",nematode larvae; [14],35.5
same,"Gall Count, replicate 1",nematode larvae; [14],49
same,Percent Control Phytophthora cinnamomi,Phytophthora cinnamomi; [15],56%
same,Percent Control Phytophthora cinnamomi,Phytophthora cinnamomi; [16],68%
same,Percent Control Phytophthora cinnamomi,Phytophthora cinnamomi; 100 g/l,100%
same,Percent Control Verticillium dahliae,Verticillium dahliae; [15],27%
same,Percent Control Verticillium dahliae,Verticillium dahliae; [16],15%
same,Percent Control Verticillium dahliae,Verticillium dahliae; 100 g/l,100%
same,Percent Control Sclerotium rolfsii,Sclerotium rolfsii; [15],42%
same,Percent Control Sclerotium rolfsii,Sclerotium rolfsii; [16],8%
same,Percent Control Sclerotium rolfsii,Sclerotium rolfsii; 100 g/l,100%
same,Percent Control Fusarium oxysporum,Fusarium oxysporum; [15],8%
same,Percent Control Fusarium oxysporum,Fusarium oxysporum; [16],10%
same,Percent Control Fusarium oxysporum,"Fusarium oxysporum; 100 g/l thiocarbonate solution per liter of diluted solution, listed as K2CS4 (9.43%CS2)",76%
same,Half-life (months),[4]; listed as K^+,2.9 months
"S=C(S)SS [NH4^+, ammonium tetrathiocarbonate]",Half-life (months),[4],0.17 months
"S=C(S)SS [Na2CS4 (10.6%CS2), sodium tetrathiocarbonate]",Percent Control Phytophthora cinnamomi,Phytophthora cinnamomi; 10 g/l,37%
same,inhibition of growth at 100000 µg/mL,"Phytophthora cinnamomi; Phytophthora cinnamomi, 168 h, 100 g/l, read-out: Percent Control Phytophthora cinnamomi",100%
same,Percent Control Verticillium dahliae,Verticillium dahliae; 1 g/l,23%
same,inhibition of growth,"Verticillium dahliae; Verticillium dahliae, 168 h, 10 g/l, read-out: Percent Control Verticillium dahliae",26%
same,inhibition of growth at 100000 µg/mL,"Verticillium dahliae; Verticillium dahliae, 168 h, 100 g/l, read-out: Percent Control Verticillium dahliae",100%
same,Percent Control Sclerotium rolfsii,Sclerotium rolfsii; 10 g/l,100%
same,inhibition of growth at 100000 µg/mL,"Sclerotium rolfsii; Agroathelia rolfsii, 168 h, 100 g/l, read-out: Percent Control Sclerotium rolfsii",100%
same,Percent Control Fusarium oxysporum,Fusarium oxysporum; 1 g/l,4%
same,Percent Control Fusarium oxysporum,Fusarium oxysporum; 10 g/l,6%
same,Percent Control Fusarium oxysporum,Fusarium oxysporum; [11],100%
same,Half-life (months),[4]; listed as Na^+,3.0 months
